From patent publication US20230398101A1, “Co-agents as Therapy Against Anaerobic Pathogens” (priority 2022, published 2023)
Where two headings read alike, the source gives them in different places.

What was measured:
[1] = tested on: facultative anaerobic pathogens; assay: microbe, parasite or virus in culture; assay type: cell-based
[2] = tested on: Phocaeicola vulgatus; assay: Anaerobic agar-dilution AST (MIC, checkerboard FIC); assay type: cell-based; settings: for MIC vs clinical breakpoint (susceptibility): anaerobic (Table 17)
[3] = tested on: Clostridium perfringens; assay: microbe, parasite or virus in culture; assay type: cell-based; settings: for MIC vs clinical breakpoint (susceptibility): anaerobic (Table 17)
[4] = tested on: Lactobacillus acidophilus; assay: AST (MIC) of beneficial or mutualistic facultative anaerobic bacteria; assay type: cell-based
[5] = tested on: Klebsiella pneumoniae; assay: Aerobic agar-dilution AST of facultative anaerobes (MIC, checkerboard FIC); assay type: cell-based
[6] = tested on: Acinetobacter baumannii; assay: as above; assay type: cell-based
[7] = tested on: Escherichia coli; assay: Post-antibiotic effect (PAE) in vitro, viable counts; settings: Escherichia coli ATCC 25922; exposure μg/ml: F 1, D/S 0.5/9.5, CAv 4/8, F/D/S 0.125/0.125/2.38, F/D/S/CAv 0.06/0.03/0.6/4/0.25

**Q.** What does the source list for `C[C@@H]1O[C@@H]1P(=O)(O)O` [F, fosfomycin sodium]?
**A.** MIC ([1]; Bacillus cereus, ATCC14579, pH 7, read-out: MIC): 64 mg/mL; MIC ([1]; Bacillus cereus, ATCC14579, pH 8, read-out: MIC): 32 mg/mL; MIC ([1]; Bacillus cereus, pH 5, read-out: MIC): 4 mg/mL; MIC ([1]; Bacillus subtilis, pH 5, read-out: MIC): 64 mg/mL; MIC ([1]; Yersinia pseudotuberculosis, ATCC6905, pH 7): 64 mg/mL; MIC ([1]; Yersinia pseudotuberculosis, pH 5): 2 mg/mL; MIC vs clinical breakpoint (susceptibility) ([2]; Phocaeicola vulgatus ATCC 8482): −; MIC vs clinical breakpoint (susceptibility) ([2]; Phocaeicola vulgatus ATCC 29327): −; MIC ([2]; Phocaeicola vulgatus, ATCC8482, strain ATCC 8482, anaerobic): > 128 µg/mL; MIC ([2]; Phocaeicola vulgatus, ATCC29327, Phacoeicola vulgatus ATCC 29327, anaerobic): 128 µg/mL; MIC ([2]; Phocaeicola vulgatus, ATCC29327, strain ATCC 29327, anaerobic): > 128 µg/mL; MIC ([2]; Phocaeicola vulgatus, ATCC29327, strain ATCC 29327, anaerobic, read-out: MIC): 64 µg/mL; MIC ([2]; Phocaeicola vulgatus, Phacoeicola vulgatus TCC 8482, anaerobic): > 128 µg/mL; MIC ([2]; strain ATCC 8482, anaerobic): 128 µg/mL; MIC vs clinical breakpoint (susceptibility) ([3]; Clostridium perfringens 2-0246-4): +; MIC vs clinical breakpoint (susceptibility) ([3]; Clostridium perfringens 11-46): +; MIC vs clinical breakpoint (susceptibility) ([3]; Clostridium perfringens 11-50): +; MIC vs clinical breakpoint (susceptibility) ([3]; Clostridium perfringens 11-61): +; MIC ([3]; Clostridium perfringens 12-117, anaerobic): 16 µg/mL; MIC vs clinical breakpoint (susceptibility) ([3]; Clostridium perfringens 12-117): +; MIC ([3]; Clostridium perfringens, Clostridium perfringens 11-46, anaerobic): 32 µg/mL; MIC ([3]; Clostridium perfringens, Clostridium perfringens 11-50, anaerobic): 8 µg/mL; MIC ([3]; Clostridium perfringens, Clostridium perfringens 11-61, anaerobic): 16 µg/mL; MIC ([3]; Clostridium perfringens, Clostridium perfringens 12-117, anaerobic): 32 µg/mL; MIC ([3]; Clostridium perfringens, strain 2-0246-4, anaerobic): 16 µg/mL; MIC ([3]; Clostridium perfringens, strain 11-50, anaerobic): 16 µg/mL; MIC ([3]; Clostridium perfringens, strain 12-117, anaerobic): 32 µg/mL; MIC ([3]; strain 2-0246-4, anaerobic): 8 µg/mL; MIC ([3]; strain 11-50, anaerobic): 8 µg/mL; MIC ([3]; strain 12-117, anaerobic): 16 µg/mL; MIC [4]: > 128 µg/mL; MIC ([5]; Klebsiella pneumoniae 870964): 64 µg/mL; MIC ([5]; Klebsiella pneumoniae 875638): 64 µg/mL; MIC ([5]; pH 5, Klebsiella pneumoniae 848788, pH 5): 64000 µg/mL; MIC ([5]; strain 848788, aerobic): 32 µg/mL; MIC ([5]; strain 857147, aerobic): 32 µg/mL; MIC ([5]; strain 868968, aerobic): 8 µg/mL; MIC ([5]; strain 869028, aerobic): 8 µg/mL; MIC ([5]; strain 870964, aerobic): 8 µg/mL; MIC ([5]; strain 875638, aerobic): 16 µg/mL; MIC ([5]; strain 892483, aerobic): 4 µg/mL; MIC ([5]; strain 926439, aerobic): 4 µg/mL; MIC ([5]; strain 926456, aerobic): 64 µg/mL; MIC ([5]; strain 939665, aerobic): 64 µg/mL; MIC ([5]; strain 957464, aerobic): 16 µg/mL; MIC ([5]; strain 957467, aerobic): 16 µg/mL; MIC ([5]; strain 984643, aerobic): 16 µg/mL; MIC ([5]; strain 993434, aerobic): 16 µg/mL; MIC ([5]; strain 995460, aerobic): 16 µg/mL; MIC ([5]; strain 1040205, aerobic): 16 µg/mL; MIC [6]: > 128 µg/mL; MIC ([6]; pH 7, Acinetobacter baumannii 918857, pH 7, read-out: MIC): 64000 µg/mL; MIC ([6]; strain 843978, aerobic, read-out: MIC): 8 µg/mL; MIC ([6]; strain 918857, aerobic, read-out: MIC): 64 µg/mL; MIC ([6]; strain 919656, aerobic, read-out: MIC): 8 µg/mL; MIC ([6]; strain 919899, aerobic, read-out: MIC): 8 µg/mL; MIC ([6]; strain 938781, aerobic, read-out: MIC): 16 µg/mL; MIC ([6]; strain 1049160, aerobic, read-out: MIC): 8 µg/mL; PAE [7]: 0.5 h
